# Tested on: P388 ascites tumor
# Experiment: Effect on P388 ascites tumor (increased life span)
# Format: in vivo
# Conditions: P388, ip; dose 12.5 mg/kg, intraperitoneal, 24 hours after implantation, male CDF1 mouse
# Method: Effect on P388 ascites tumor:
# P388 tumor cells (10^6 cells) were implanted intraperitoneally into a DBA/2 mouse and the cells were collected from the ascitic fluid of the animal 7 days after the implantation. The cells were ashed once with sterilized physiological saline solution and then suspended in a sterilized physiological saline solution to prepare a cell suspension containing 5×10^6 cells/ml. The suspension (0.2 ml) was intraperitoneally inoculated into a male CDF1 mouse aged 6 weeks. A test compound was dissolved in physiological saline solution and intraperitoneally administered to the animal 24 hours after implantation of the tumor cells. One test group comprised 5 mice. The mean survival time (days) of a test group which received a test compound at a specified concentration was calculated as T from survival days of animals in the group. ON the other hand, the mean survival time (days) of the non-administered group (C) was obtained in the same manner, and the increased life span (ILS %) was calculated as [(T-C)/C]×100 (%).
row,Structure (SMILES),ILS at 12.5 mg/kg
1,"NCCCNCc1nn2c3cccc(O)c3c(=O)c3c(NCCCN)ccc1c32 [Compound 29, 5-(3-Aminopropyl)amino-2-(3-aminopropyl)aminomethyl-7-hydroxy-6H-pyrazolo[4,5,1-d,e]acridin-6-one]",> 121%
2,"NCCNc1ccc2c(CNCCSCCO)nn3c4cccc(O)c4c(=O)c1c23 [Compound 59, 5-(2-Aminoethyl)amino-7-hydroxy-2-[2-(2-hydroxyethylthio)ethyl]aminomethyl-6H-pyrazolo[4,5,1-d,e]acridin-6-one]",> 134%
3,"O=c1c2c(O)cccc2n2nc(CNCCOCCO)c3ccc(NCCNCCO)c1c32 [Compound 66, 7-Hydroxy-5-[2-(2-hydroxyethylamino)ethyl]amino-2-[2-(2-hydroxyethyloxy)ethyl]aminomethyl-6H-pyrazolo[4,5,1-d,e]acridin-6-one]",> 133%
4,"CN(C)CCCNCc1nn2c3cccc(O)c3c(=O)c3c(NCCCN(C)C)ccc1c32 [Compound 70, 5-(3-Dimethylaminopropyl)amino-2-(3-dimethylaminopropyl)aminomethyl-7-hydroxy-6H-pyrazolo[4,5,1-d,e]acridin-6-one]",> 112%

# Same assay, conditions: P388, ip; dose 25 mg/kg, intraperitoneal, 24 hours after implantation, male CDF1 mouse
row,Structure (SMILES),ILS at 25 mg/kg
1,"NCCCNCc1nn2c3ccccc3c(=O)c3c(NCCCN)ccc1c32 [Compound 22, 5-(3-Aminopropyl)amino-2-(3-aminopropyl)aminomethyl-6H-pyrazolo[4,5,1-d,e]acridin-6-one]",52%
2,"COc1cccc2c1c(=O)c1c(NCCN)ccc3c(CNCCN)nn2c31 [Compound 25, 5-(2-Aminoethyl)amino-2-(2-aminoethyl)aminomethyl-7-methoxy-6H-pyrazolo[4,5,1-d,e]acridin-6-one]",39%
3,"COc1cccc2c1c(=O)c1c(NCCCN)ccc3c(CNCCCN)nn2c31 [Compound 26, 5-(3-Aminopropyl)amino-2-(3-aminopropyl)aminomethyl-7-methoxy-6H-pyrazolo[4,5,1-d,e]acridin-6-one]",28%

# Same assay, conditions: P388, ip; dose 37.5 mg/kg, intraperitoneal, 24 hours after implantation, male CDF1 mouse
row,Structure (SMILES),ILS at 37.5 mg/kg
1,"NCCNCc1nn2c3ccccc3c(=O)c3c(NCCN)ccc1c32 [Compound 21, 5-(2-Aminoethyl)amino-2-(2-aminoethyl)aminomethyl-6H-pyrazolo[4,5,1-d,e]acridin-6-one]",50%

# Same assay, conditions: P388, ip; dose 50 mg/kg, intraperitoneal, 24 hours after implantation, male CDF1 mouse
row,Structure (SMILES),ILS at 50 mg/kg
1,"CN(C)CCNCc1nn2c3ccccc3c(=O)c3c(NCCN(C)C)ccc1c32 [Compound 23, 5-(2-Dimethylaminoethyl)amino-2-(2-dimethylaminoethyl)aminomethyl-6H-pyrazolo[4,5,1-d,e]acridin-6-one]",46%
2,"CN(C)CCNCc1nn2c3cccc(O)c3c(=O)c3c(NCCN(C)C)ccc1c32 [Compound 30, 5-(2-Dimethylaminoethyl)amino-2-(2-dimethylaminoethyl)aminomethyl-7-hydroxy-6H-pyrazolo[4,5,1-d,e]acridin-6-one]",61%

# Same assay, conditions: P388, ip; dose 75 mg/kg, intraperitoneal, 24 hours after implantation, male CDF1 mouse
row,Structure (SMILES),ILS at 75 mg/kg
1,"O=c1c2c(O)cccc2n2nc(CNCCO)c3ccc(Br)c1c32 [Compound 67, 5-Bromo-7-hydroxy-2-(2-hydroxyethyl)aminomethyl-6H-pyrazolo[4,5,1-d,e]acridin-6-one]",31%

# Same assay, conditions: P388, ip; dose 4-6 mg/kg, intraperitoneal, 24 hours after implantation, male CDF1 mouse
row,Structure (SMILES),ILS at 4 mg/kg
1,"CO[C@@]12[C@H](COC(N)=O)C3=C(C(=O)C(C)=C(N)C3=O)N1C[C@@H]1N[C@@H]12 [Mitomycin C, reference compound]",57 to 67%

# Same assay, conditions: dose 18.8 mg/kg, intraperitoneal, 24 hours after implantation, male CDF1 mouse
row,Structure (SMILES),ILS (%)
1,"O=c1c2ccccc2n2nc(CN(CCCl)CCCl)c3cccc1c32 [Compound 9, 2-Bis(2-chloroethyl)aminomethyl-6H-pyrazolo[4,5,1-d,e]acridin-6-one]",28%

# Tested on: human cancer cells (HeLaS3)
# Experiment: Inhibitory effect on growth of human cancer cells (HeLaS3)
# Format: cell-based
# Conditions: 72 hours at 37° C., Neutral Red staining, 550 nm
# Method: Inhibitory effect on growth of human cancer cells (HeLaS3):
# HeLaS, cells were suspended in a medium comprising MEM medium (Nissui Pharmaceutical Co., Ltd.) and 2 mM glutamine (hereinafter referred to as Medium A) to a concentration of 3×10^4 cells/ml. The cell suspension thus prepared was put into wells of a 96-well microtiter plate in an amount of 0.1 ml/well. The cells on the plate were incubated in a CO2 -incubater at 37° C. for 20 hours, and 0.05 ml of a sample containing a test compound and appropriately diluted with Medium A was added to each well. The cells were further incubated in the CO2 -incubater at 37° C. for 72 hours. After the culture supernatant was removed, a medium comprising Medium A and 0.02% Neutral Red was added to the residue in an amount of 0.1 ml/well, followed by incubation at 37° C. for one hour in the CO2 -incubater, whereby the cells were stained. The culture supernatant was removed and the residue was washed once with physiological saline solution. The pigment was extracted with 0.001 N-HCl/30%-ethanol, and the absorbance was determined at 550 nm with a microplate reader. The absorbance determined for intact cells was compared with that for the cells treated with the test compound of a known concentration, and the concentration of the test compound for inhibiting 50% growth of the cells (IC50) was calculated.
row,Structure (SMILES),IC50
1,"O=c1c2ccccc2n2nc(CN(CCCl)CCCl)c3cccc1c32 [Compound 9, 2-Bis(2-chloroethyl)aminomethyl-6H-pyrazolo[4,5,1-d,e]acridin-6-one]",0.92 µg/mL

# Same assay, conditions: Homo sapiens, HeLa S3, 72 hours at 37° C., Neutral Red staining, 550 nm, read-out: IC50
row,Structure (SMILES),IC50
1,"COc1cccc2c1C(=O)c1c(O)c3c(c(O)c1C2=O)C[C@@](O)(C(=O)CO)C[C@@H]3O[C@H]1C[C@H](N)[C@H](O)[C@H](C)O1 [Adriamycin, reference compound]",0.009 to 0.05 µg/mL
2,"CN(C)CCNC(=O)c1nn2c3ccccc3c(=O)c3cccc1c32 [Compound 3, 2-(2-Dimethylaminoethyl)aminocarbonyl-6H-pyrazolo[4,5,1-d,e]acridin-6-one]",2.5 µg/mL
3,"O=C(NCCN1CCOCC1)c1nn2c3ccccc3c(=O)c3cccc1c32 [Compound 5, 2-(2-Morpholinoethyl)aminocarbonyl-6H-pyrazolo[4,5,1-d,e]acridin-6-one]",7.2 µg/mL
4,"O=c1c2ccccc2n2nc(CNCCN3CCOCC3)c3cccc1c32 [Compound 8, 2-(2-Morpholinoethyl)aminomethyl-6H-pyrazolo[4,5,1-d,e]acridin-6-one]",4.9 µg/mL
5,"NCCNCc1nn2c3ccccc3c(=O)c3c(N)ccc1c32 [Compound 15, 5-Amino-2-(2-aminoethyl]aminomethyl-6H-pyrazolo[4,5,1-d,e]acridin-6-one]",0.71 µg/mL
6,"Nc1ccc2c(CNCCN3CCOCC3)nn3c4ccccc4c(=O)c1c23 [Compound 17, 5-Amino-2-(2-morpholinoethyl)aminomethyl-6H-[4,5,1-d,e]-acridin-6-one]",1.96 µg/mL
7,"NCCCNCc1nn2c3ccccc3c(=O)c3c(NCCCN)ccc1c32 [Compound 22, 5-(3-Aminopropyl)amino-2-(3-aminopropyl)aminomethyl-6H-pyrazolo[4,5,1-d,e]acridin-6-one]",0.078 µg/mL
8,"NCCCNCc1nn2c3cccc(O)c3c(=O)c3c(NCCCN)ccc1c32 [Compound 29, 5-(3-Aminopropyl)amino-2-(3-aminopropyl)aminomethyl-7-hydroxy-6H-pyrazolo[4,5,1-d,e]acridin-6-one]",0.014 µg/mL
9,"CNCCNCc1nn2c3ccccc3c(=O)c3c(NCCNC)ccc1c32 [Compound 33, 5-(2-Methylaminoethyl)amino-2-(2-methylaminoethyl)aminomethyl-6H-pyrazolo[4,5,1-d,e]acridin-6-one]",2.69 µg/mL
10,"CCNCCNCc1nn2c3ccccc3c(=O)c3c(NCCNCC)ccc1c32 [Compound 34, 5-(2-Ethylaminoethyl)amino-2-(2-ethylaminoethyl)aminomethyl-6H-pyrazolo[4,5,1-d,e]acridin-6-one]",1.72 µg/mL
11,"NCCCCNCc1nn2c3ccccc3c(=O)c3c(NCCCCN)ccc1c32 [Compound 37, 5-(4-Aminobutyl)amino-2-(4-aminobutyl)aminomethyl-6H-pyrazolo[4,5,1-d,e]acridin-6-one]",2.11 µg/mL
12,CN(C)CCNCc1nn2c3cccc(O)c3c(=O)c3c(NCCNCCO)ccc1c32 [Compound 42],0.12 µg/mL

# More lines, now with the values ahead:
row,IC50,Structure (SMILES)
1,2.98 µg/mL,"COc1cccc2c1c(=O)c1cccc3c(C(=O)NCCN(C)C)nn2c31 [Compound 4, 7-Methoxy-2-(2-dimethylaminoethyl)aminocarbonyl-6H-pyrazolo[4,5,1-d,e]acridin-6-one]"
2,8.89 µg/mL,"O=c1c2ccccc2n2nc(CN(CCO)CCO)c3cccc1c32 [Compound 7, 2-Bis(2-hydroxyethyl)aminomethyl-6H-pyrazolo[4,5,1-d,e]acridin-6-one]"
3,2.16 µg/mL,"Cc1nn2c3ccccc3c(=O)c3c(N)ccc1c32 [Compound 11, 5-Amino-2-methyl-6H-pyrazolo[4,5,1-d,e]acridin-6-one]"
4,0.87 µg/mL,"Nc1ccc2c(CNCCNCCO)nn3c4ccccc4c(=O)c1c23 [Compound 16, 5-Amino-2-[2-(2-hydroxyethylamino)ethyl]aminomethyl-6H-[4,5,1-d,e]acridin-6-one]"
5,0.22 µg/mL,"COc1cccc2c1c(=O)c1c(NCCCN)ccc3c(CNCCCN)nn2c31 [Compound 26, 5-(3-Aminopropyl)amino-2-(3-aminopropyl)aminomethyl-7-methoxy-6H-pyrazolo[4,5,1-d,e]acridin-6-one]"
6,1.16 µg/mL,"CNCCCNCc1nn2c3ccccc3c(=O)c3c(NCCCNC)ccc1c32 [Compound 32, 5-(3-Methylaminopropyl)amino-2-(3-methylaminopropyl)aminomethyl-6H-pyrazolo[4,5,1-d,e]acridin-6-one]"
7,3.37 µg/mL,"O=c1c2ccccc2n2nc(CNCCN3CCOCC3)c3ccc(NCCN4CCOCC4)c1c32 [Compound 35, 5-(2-Morpholinoethyl)amino-2-(2-morpholinoethyl)aminomethyl-6H-pyrazolo[4,5,1-d,e]acridin-6-one]"
8,3.1 µg/mL,"CCN(CC)CCNCc1nn2c3ccccc3c(=O)c3c(NCCN(CC)CC)ccc1c32 [Compound 36, 5-(2-Diethylaminoethyl)amino-2-(2-diethylaminoethyl)aminomethyl-6H-pyrazolo[4,5,1-d,e]acridin-6-one]"
9,2.89 µg/mL,"CNCCNc1ccc2c(CN(C)CCN)nn3c4ccccc4c(=O)c1c23 [Compound 38, 2-[N-(2-aminoethyl)-N-methyl]aminomethyl-5-(2-methylaminoethyl)amino-6H-pyrazolo[4,5,1-d,e]acridin-6-one]"
10,8.33 µg/mL,"CN(C)CCCNCc1nn2c3ccccc3c(=O)c3c(NCCCN(C)C)ccc1c32 [Compound 39, 5-(3-Dimethylaminopropyl)amino-2-(3-dimethylaminopropyl)aminomethyl-6H-pyrazolo[4,5,1-d,e]acridin-6-one]"
11,0.0023 µg/mL,"NCCNc1ccc2c(CNCCOCCO)nn3c4cccc(O)c4c(=O)c1c23 [Compound 62, 5-(2-Aminoethyl)amino-7-hydroxy-2-[2-(2-hydroxyethyloxy)ethyl]aminomethyl-6H-pyrazolo[4,5,1-d,e]acridin-6-one]"

# — patent publication US5079358A, “6H-pyrazolo-[4,5,1-d,e]acridin-6-one derivatives having anit-tumor activity” (Kyowa Hakko Kogyo Co., Ltd., priority 1988, dated 1992)
